The target in assay [1] is SIK1 (Homo sapiens (Human), UniProt P57059). The assay is described as follows: Pan SIK MS IC50 enzyme assay (SIK1). Format: biochemical. Conditions: 1 mM ATP, substrate peptide AQT0868, LCMS/MS detection. How it is done: (§1) Enzyme Assay: Pan SIK MS IC50 Assay
(§2) Salt Induced Kinase (SIK) activity is determined by measuring the effect of a test agent on the activity of the appropriate SIK enzyme to phosphorylate its corresponding substrate. […] The phosphorylated substrate product resulting from the kinase reaction is detected by LCMS/MS, and the area under the peak curve correlates with kinase activity. […] The plates are spun at 1000 rpm for 30 seconds to ensure compounds are at the bottom of the well before removing foil covers. 0.15 μL HPE (assay std) and ZPE (DMSO) are added to the ARP using an HP D300 dispenser. Plates are spun again at 1000 rpm for 30 seconds. […] Plates are spun at 1000 rpm for 30 seconds. Plates are then sealed and incubated at RT for 10 minutes. Following incubation, 5 μL of 5× peptide reagent is added with a Multidrop Combi and designated small volume cassette to initiate the kinase reaction. Plates are spun at 1000 rpm for 30 seconds. Plates are then sealed and incubated at RT for 90 minutes. The assay is stopped by the addition of 5 μl of 120 mM EDTA added with a Multidrop Combi and designated small volume cassette (20 mM final concentration). Plates are spun at 1000 rpm for 30 seconds. 10 μl of the final reaction mix from each of the three individual enzyme plates are transferred by a Platemate Plus to the same corresponding 96 well deepwell plate containing 70 μl Water/Methanol (85/15%) for multiplex MS detection ([…]). Using Activity Base (ABase), an idbs data analysis software tool, the reported area ratio unit data is associated to compound, batch and dose information, the data is evaluated for quality, and the percent inhibition of each well is calculated. The data from each Max effect/HPE and Min effect/ZPE control wells are assessed, and outliers are excluded from all further calculations. The mean and standard deviation of the HPE and ZPE are then calculated for each plate, along with the Z Prime. The compound data is converted into % effect, using the average ZPE and HPE controls as 0% and 100% activity, respectively.

Assay [2] has as its target SIK3 (Homo sapiens (Human), UniProt Q9Y2K2). In words: Pan SIK MS IC50 enzyme assay (SIK3). Format: biochemical. Conditions: 1 mM ATP, substrate peptide AQT0508, LCMS/MS detection. The protocol:
as §1, §2

Assay [3] concerns the target SIK2 (Homo sapiens (Human), UniProt Q9H0K1). In words: Pan SIK MS IC50 enzyme assay (SIK2). Format: biochemical. Conditions: 1 mM ATP, substrate peptide AQT0252, LCMS/MS detection. How it is done: as §1, §2
Assay [4] deals with TNFα release from human monocyte derived macrophages stimulated with LPS. The assay is described as follows: SIK macrophage cytokine assay, inhibition of TNFα release. Format: cell-based. Conditions: 1 ng/mL LPS, 4 hours, HTRF, read-out: TNFa IC50. The protocol: (§3) Cytokine Assays: SIK Macrophage Assay Cytokine activity is determined by measuring the effect of a test agent on the inhibitory release of the cytokine TNFα and the increasing release of the cytokine IL10 from human monocyte derived macrophages (human macrophages) stimulated with lipopolysaccharide (LPS). At the time of assay, human macrophages (CGPS group Pfizer Groton, CT) are removed from cryopreservation, thawed quickly at 37° C., diluted in thaw medium (OptiMEM—Gibco medium, 10% heat inactivated fetal bovine serum (HIFBS)), and then centrifuged at 200×g for 10 minutes. […] After ˜60 minutes in an incubator at 37° C. in a humidified environment in 5% carbon dioxide the cells are stimulated by the addition of 5 μL of LPS (10 ng/mL; Sigma) and the assay plate is returned to an incubator at 37° C. in a humidified environment in 5% carbon dioxide for 4 hours. […] The final concentration of DMSO in the assay is approximately 0.1%. After 4 hours, the assay plate is removed from the incubator and centrifuged at 1500 rpm for 10 minutes. A portion of the resulting cell supernatant is then used to determine the amount of IL-10 and TNFα in each well. Cytokine measurements are made using human IL-10 and TNFα HTRF assay kits (Perkin Elmer) following the manufacturer's assay protocol.

Assay [5] concerns IL10 release from human monocyte derived macrophages stimulated with LPS. In words: SIK macrophage cytokine assay, increase of IL10 release. Format: cell-based. Conditions: 1 ng/mL LPS, 4 hours, HTRF. The protocol: as §3
A general note: Time-resolved FRET reads energy transfer from a long-lived donor to a nearby acceptor.

Like-named read-outs stand apart in the source and are kept apart here.

Sequence of SIK1 (P57059 whole entry, species assumed): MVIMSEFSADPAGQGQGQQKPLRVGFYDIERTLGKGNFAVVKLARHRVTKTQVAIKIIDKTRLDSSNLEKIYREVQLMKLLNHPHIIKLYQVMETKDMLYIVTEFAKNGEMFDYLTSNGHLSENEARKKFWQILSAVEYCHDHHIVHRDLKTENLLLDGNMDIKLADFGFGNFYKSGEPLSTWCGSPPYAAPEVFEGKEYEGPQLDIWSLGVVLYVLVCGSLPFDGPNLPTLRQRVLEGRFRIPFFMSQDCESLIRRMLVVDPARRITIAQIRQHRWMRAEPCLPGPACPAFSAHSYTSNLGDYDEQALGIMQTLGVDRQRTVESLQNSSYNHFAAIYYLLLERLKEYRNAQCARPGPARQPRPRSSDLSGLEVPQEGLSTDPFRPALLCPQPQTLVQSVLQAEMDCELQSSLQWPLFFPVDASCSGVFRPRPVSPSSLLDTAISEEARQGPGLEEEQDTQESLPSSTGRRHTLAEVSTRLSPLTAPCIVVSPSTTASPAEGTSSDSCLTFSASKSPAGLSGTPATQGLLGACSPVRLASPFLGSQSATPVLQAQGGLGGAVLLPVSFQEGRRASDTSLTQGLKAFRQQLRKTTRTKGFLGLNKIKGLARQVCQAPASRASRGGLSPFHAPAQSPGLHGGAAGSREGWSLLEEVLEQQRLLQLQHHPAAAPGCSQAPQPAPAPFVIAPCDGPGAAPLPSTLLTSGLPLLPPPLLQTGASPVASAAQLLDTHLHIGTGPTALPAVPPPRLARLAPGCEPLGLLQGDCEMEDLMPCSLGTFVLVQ
Sequence of SIK2 (Q9H0K1 whole entry, species assumed): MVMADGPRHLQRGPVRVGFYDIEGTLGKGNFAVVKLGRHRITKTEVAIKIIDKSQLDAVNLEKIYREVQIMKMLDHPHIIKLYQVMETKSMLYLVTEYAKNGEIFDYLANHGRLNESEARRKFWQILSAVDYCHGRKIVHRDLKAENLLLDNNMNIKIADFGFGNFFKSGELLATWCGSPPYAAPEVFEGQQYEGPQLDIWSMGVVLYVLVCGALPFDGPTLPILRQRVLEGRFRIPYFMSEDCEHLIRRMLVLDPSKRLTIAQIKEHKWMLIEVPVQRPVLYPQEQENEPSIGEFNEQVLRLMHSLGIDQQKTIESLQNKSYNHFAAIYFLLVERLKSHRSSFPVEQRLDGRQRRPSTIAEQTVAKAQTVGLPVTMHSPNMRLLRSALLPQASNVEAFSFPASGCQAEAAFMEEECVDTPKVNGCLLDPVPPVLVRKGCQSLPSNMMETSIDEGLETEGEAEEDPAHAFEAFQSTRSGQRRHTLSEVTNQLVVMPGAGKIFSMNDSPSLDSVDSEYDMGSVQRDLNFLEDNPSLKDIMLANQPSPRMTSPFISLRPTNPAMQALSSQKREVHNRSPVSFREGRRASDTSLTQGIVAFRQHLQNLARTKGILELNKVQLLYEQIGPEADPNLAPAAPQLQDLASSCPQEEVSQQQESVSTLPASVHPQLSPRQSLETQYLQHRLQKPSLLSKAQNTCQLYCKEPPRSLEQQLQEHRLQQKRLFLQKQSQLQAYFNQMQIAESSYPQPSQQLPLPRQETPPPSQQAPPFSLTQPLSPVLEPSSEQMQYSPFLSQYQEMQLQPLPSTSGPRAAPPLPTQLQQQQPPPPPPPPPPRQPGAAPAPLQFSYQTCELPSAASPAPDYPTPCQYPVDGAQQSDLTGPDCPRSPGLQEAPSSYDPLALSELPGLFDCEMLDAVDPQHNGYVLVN
Sequence of SIK3 (Q9Y2K2 whole entry, species assumed): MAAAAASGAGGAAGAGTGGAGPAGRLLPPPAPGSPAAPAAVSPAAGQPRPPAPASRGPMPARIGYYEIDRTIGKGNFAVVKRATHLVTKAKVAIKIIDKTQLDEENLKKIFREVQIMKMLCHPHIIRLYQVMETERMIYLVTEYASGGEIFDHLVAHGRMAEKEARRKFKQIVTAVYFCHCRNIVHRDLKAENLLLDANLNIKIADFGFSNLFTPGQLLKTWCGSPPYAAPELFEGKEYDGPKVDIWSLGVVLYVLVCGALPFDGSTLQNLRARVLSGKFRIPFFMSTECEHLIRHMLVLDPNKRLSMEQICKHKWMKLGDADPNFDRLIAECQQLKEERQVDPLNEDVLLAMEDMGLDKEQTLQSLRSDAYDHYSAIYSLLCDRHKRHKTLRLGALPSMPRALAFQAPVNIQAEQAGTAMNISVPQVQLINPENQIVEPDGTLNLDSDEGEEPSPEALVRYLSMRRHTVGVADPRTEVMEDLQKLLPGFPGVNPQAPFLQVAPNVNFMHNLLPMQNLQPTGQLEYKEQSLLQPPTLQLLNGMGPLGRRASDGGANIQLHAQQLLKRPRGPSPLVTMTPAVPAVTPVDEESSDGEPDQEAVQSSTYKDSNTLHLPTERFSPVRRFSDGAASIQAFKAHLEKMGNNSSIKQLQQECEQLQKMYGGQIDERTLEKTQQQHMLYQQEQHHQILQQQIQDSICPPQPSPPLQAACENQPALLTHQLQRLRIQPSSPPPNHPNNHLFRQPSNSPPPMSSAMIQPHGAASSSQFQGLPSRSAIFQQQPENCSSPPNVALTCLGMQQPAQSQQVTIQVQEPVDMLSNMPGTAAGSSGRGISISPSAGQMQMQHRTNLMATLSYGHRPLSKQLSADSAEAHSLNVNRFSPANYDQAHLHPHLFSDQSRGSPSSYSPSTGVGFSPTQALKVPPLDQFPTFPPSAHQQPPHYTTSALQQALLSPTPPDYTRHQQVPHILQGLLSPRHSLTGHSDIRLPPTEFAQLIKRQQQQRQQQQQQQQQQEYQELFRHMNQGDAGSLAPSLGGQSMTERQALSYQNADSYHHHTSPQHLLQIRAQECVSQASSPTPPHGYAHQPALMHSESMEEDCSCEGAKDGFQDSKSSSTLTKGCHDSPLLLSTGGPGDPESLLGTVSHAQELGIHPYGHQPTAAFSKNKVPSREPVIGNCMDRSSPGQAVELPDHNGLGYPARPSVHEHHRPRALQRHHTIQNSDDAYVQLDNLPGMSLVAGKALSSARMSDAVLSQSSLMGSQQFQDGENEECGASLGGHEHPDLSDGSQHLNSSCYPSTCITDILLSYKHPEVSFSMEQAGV

On to `CSc1cc(-c2cnc3cccc(C#N)n23)cc(OCC2(N)CCSC2)c1C#N` (racemic) [Example 27, (R)-3-(3-((3-aminotetrahydrothiophen-3-yl)methoxy)-4-cyano-5-(methylthio)phenyl)imidazo[1,2-a]pyridine-5-carbonitrile and (6)-3-(3-(((3-aminotetrahydrothiophen-3-yl)methoxy)-4-cyano-5-(methylthio)phenyl)imidazo[1,2-a]pyridine-5-carbonitrile], for which the IC50 – broadly, the concentration that inhibits the measured activity by half – in assay [1] is 3.3 nM; in assay [2] it was 5.1 nM; in assay [3], 2.5 nM; in assay [4] (Macrophage) it was 25.8 nM. Further, the EC50 (in general, the concentration that produces a half-maximal response) in assay [5] (Macrophage) came out at 142 nM.

Regarding `CSc1cc(-c2cnc3ccccn23)cc(OC[C@@]2(N)CCC[C@@H](C(F)(F)F)C2)c1C#N` (racemic) [Example 33A, 2-(((1S,3S)-1-Amino-3-(trifluoromethyl)cyclohexyl)methoxy)-4-(imidazo[1,2-a]pyridin-3-yl)-6-(methylthio)benzonitrile and 2-(((1R,3R)-1-amino-3-(trifluoromethyl)cyclohexyl)methoxy)-4-(imidazo[1,2-a]pyridin-3-yl)-6-(methylthio)benzonitrile], the half-maximal inhibitory concentration (IC50) in assay [1] was 0.6 nM; in assay [2], 2.2 nM; in assay [3], 1 nM; in assay [4] (Macrophage), 13.9 nM. This compound also had an EC50 in assay [5] (Macrophage) of 34 nM.

On to `COc1cccc2ncc(-c3cc(OCC4(N)CCCC4)c(C#N)c(SC)c3)n12` [Example 1, 2-((1-Aminocyclopentyl)methoxy)-4-(5-methoxyimidazo[1,2-a]pyridin-3-yl)-6-(methylthio)benzonitrile], for which the IC50 in assay [1] turned out to be 2.5 nM; in assay [2], 7.5 nM; in assay [3], 2.2 nM; in assay [4] (Macrophage), 26.4 nM. Also, the EC50 in assay [5] (Macrophage) worked out at 109 nM.

For `CC[C@@H]1CCC[C@@]1(N)COc1cc(-c2cnc3cccc(OC)n23)cc(OC)c1C#N` [Example 2A, 2-(((1S,2R)-1-Amino-2-ethylcyclopentyl)methoxy)-6-methoxy-4-(5-methoxyimidazo[1,2-a]pyridin-3-yl)benzonitrile], the 50% inhibitory concentration (IC50) in assay [1] amounted to 0.5 nM; in assay [2] it was 2 nM; in assay [3], 0.6 nM; in assay [4] (Macrophage), 5.2 nM. Also, it took 21 nM to reach a half-maximal effect in assay [5] (Macrophage) (EC50).

Regarding `CC[C@H]1CCC[C@]1(N)COc1cc(-c2cnc3cccc(OC)n23)cc(OC)c1C#N` [Example 2B, 2-(((1R,2S)-1-Amino-2-ethylcyclopentyl)methoxy)-6-methoxy-4-(5-methoxyimidazo[1,2-a]pyridin-3-yl)benzonitrile], the IC50 in assay [1] is 12 nM; in assay [2], 71.3 nM; in assay [3] it was 11.1 nM; in assay [4] (Macrophage), 271 nM. A half-maximal response in assay [5] (Macrophage) (EC50) required 570 nM.

Turning to `CCC1CCC(N)(COc2cc(-c3cnc4cccc(OC)n34)cc(OC)c2C#N)C1` (stereo not shown) [Example 3, 2-((1-Amino-3-ethylcyclopentyl)methoxy)-6-methoxy-4-(5-methoxyimidazo[1,2-a]pyridin-3-yl)benzonitrile], the IC50 worked out at 0.8 nM in assay [1], 4.7 nM in assay [2], 2.1 nM in assay [3] and 29.7 nM in assay [4] (Macrophage). Further, in assay [5] (Macrophage), the half-maximal effective concentration (EC50) turned out to be 92 nM.

On to `CCC1CCCC1(N)COc1cc(-c2cnc3cccc(OC)n23)cc(SC)c1C#N` (stereo not shown) [Example 8, 2-((1-Amino-2-ethylcyclopentyl)methoxy)-4-(5-methoxyimidazo[1,2-a]pyridin-3-yl)-6-(methylthio)benzonitrile], for which the IC50 in assay [1] is 1.1 nM; in assay [2] it was 3.3 nM; in assay [3], 1 nM; in assay [4] (Macrophage) it was 11.1 nM. In assay [5] (Macrophage), this compound gave an EC50 of 23 nM.

On to `COc1cc(-c2cnc3cccc(OC)n23)cc(OCC2(N)CCCN(CC(F)(F)F)C2)c1C#N` (stereo not shown) [Example 21A], for which the IC50 came out at 1 nM in assay [1], 4.4 nM in assay [2], 1.1 nM in assay [3] and 19.6 nM in assay [4]. Moreover, in assay [5], it took 50 nM to reach a half-maximal effect (EC50).

Values taken from patent publication US20240124450A1, “Novel SIK Inhibitors” (Pfizer Inc., priority 2022, published 2024).
